Measured values as given in paper doi:10.1101/2023.08.21.552681v1 (biorxiv, 2023).

Biological target: T1, ctdWDR91 (Homo sapiens, UniProt A4D1P6)
T1 sequence (A4D1P6 392-747): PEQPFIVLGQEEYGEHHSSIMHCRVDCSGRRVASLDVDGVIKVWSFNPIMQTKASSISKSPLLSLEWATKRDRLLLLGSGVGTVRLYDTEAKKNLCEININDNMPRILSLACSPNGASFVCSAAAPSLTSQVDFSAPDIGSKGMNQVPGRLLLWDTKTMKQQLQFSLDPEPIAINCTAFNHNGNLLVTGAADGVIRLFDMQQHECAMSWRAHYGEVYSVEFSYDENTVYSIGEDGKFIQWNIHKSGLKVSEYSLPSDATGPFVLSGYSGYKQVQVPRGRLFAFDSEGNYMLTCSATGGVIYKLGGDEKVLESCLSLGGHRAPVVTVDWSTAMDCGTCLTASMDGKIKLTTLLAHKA
Assay: biochemical

SMILES | Kd
CC(NC(=O)c1ccc2c(=O)n3c(nc2c1)CCC3)c1ccc(Cl)cc1 (stereo not shown) [MRGG044821a] | > 45 µM
CCC(NC(=O)CN1CCn2cncc2C1)c1ccc(Cl)cc1 (stereo not shown) [MRGG044822a] | > 45 µM
CC(NC(=O)C1Cc2ccccc2O1)c1cccc(N2CCCC2)c1 (stereo not shown) [MRGG044823a] | > 45 µM
CCC(NC(=O)c1ccc(S(=O)(=O)NC2CC2)cc1)c1ccc(Br)cc1 (stereo not shown) [MRGG044824a] | > 45 µM
O=C(NCCc1ccc(O)c(O)c1)Nc1cccc(N2CCNC2=O)c1 [MRGG044825a] | > 45 µM
CC1c2cccn2CCN1C(=O)c1cc(Br)cc(N2CCCC2)c1 (stereo not shown) [MRGG044826a] | > 45 µM
CC1CN(C2CC2)CC1NC(=O)c1cc2cc(Br)ccc2o1 (stereo not shown) [MRGG044827a] | > 45 µM
O=C(Nc1ccc2oc(=O)ccc2c1)c1cc(F)c(F)cc1[N+](=O)[O-] [MRGG044828a] | > 45 µM
Cc1cc(NCC2CCN(C3CC3)C2)nc(-c2cccc([N+](=O)[O-])c2)n1 (stereo not shown) [MRGG044829a] | > 45 µM
c1nc(NC2CCN(C3CC3)C2)c2ccsc2n1 (stereo not shown) [MRGG044830a] | > 45 µM
O=[N+]([O-])c1ccc(N2CCC(CNc3ccccn3)C2)c2ccncc12 (stereo not shown) [MRGG044831a] | > 45 µM
O=C(NC(CO)c1ccc(Cl)cc1)c1cccc2cn[nH]c12 (stereo not shown) [MRGG044832a] | > 45 µM
Cc1ccc(C(=O)NC(c2ccc(Cl)cc2)C2CC2)cc1[N+](=O)[O-] (stereo not shown) [MRGG044833a] | > 45 µM
CCOc1ccc2c(c1)C(NC(=O)c1cn3ccnc3s1)CCO2 (stereo not shown) [MRGG044834a] | > 45 µM
c1ccc2c(c1)OCCCC2NC1CCN(C2CC2)C1 (stereo not shown) [MRGG044835a] | > 45 µM
CC(NC(=O)c1ccc(CNC(N)=O)cc1)c1ccc(Cl)c(Cl)c1 (stereo not shown) [MRGG044836a] | > 45 µM
CC(=O)N1CCCC(C(=O)N(C)CCc2ccc(F)cc2)C1 (stereo not shown) [MRGG044837a] | > 45 µM
Cn1ccc(C(=O)Nc2ccc(N3CCCCC3)c3ccncc23)cc1=O [MRGG044838a] | > 45 µM
CC(NC(=O)CN(C)Cc1ccc(Cl)c(Cl)c1)c1ccccc1 (stereo not shown) [MRGG044839a] | > 45 µM
NC(=O)C1=NOC(CNC(=O)NCC2CCN(c3ccccc3)C2)C1 (stereo not shown) [MRGG044840a] | > 45 µM
COC(=O)c1ccccc1NC(=O)c1ccc2nnsc2c1 [MRGG044841a] | > 45 µM
CN(Cc1ccc(Cl)c(Cl)c1)C(=O)COC(=O)C=Cc1ccc(O)c(O)c1 [MRGG045262a] | > 45 µM
COC(=O)c1ccc(C(=O)N2C3CCC2CN(C)C3)cn1 [MRGG045263a] | > 45 µM

SMILES | Kd
COCC1CCN(c2ccc(C(=O)N3C[C@@H]4C[C@H]3CN4C3CC3)cc2)C1 (stereo partly shown) [MRGG045264a] | > 45 µM
NC(=O)C1(NC(=O)c2ccc3cccnc3c2)Cc2ccccc2C1 [MRGG045265a] | > 45 µM
CN1C[C@@H]2CN(C(=O)c3cc(Br)c([N+](=O)[O-])[nH]3)C[C@@H]2C1 [MRGG045266a] | > 45 µM
O=C(NC1(c2ccc(F)cc2)COC1)c1ccc2cnccc2c1 [MRGG045267a] | > 45 µM
CN(CCc1ccccc1F)C(=O)c1cnc2sccn12 [MRGG045268a] | > 45 µM
CCN(CC(=O)NCc1cc(Cl)c(Cl)cc1Cl)C1CC1 [MRGG045269a] | > 45 µM
CN(CCCc1ccccc1)C(=O)c1cn2ccnc2s1 [MRGG045270a] | > 45 µM
CN1CCC2(CCCN(C(=O)c3cccnc3C(N)=O)C2)C1 (stereo not shown) [MRGG045271a] | > 45 µM
O=C(NC(CCO)c1ccc(Cl)cc1)c1ccc(CN2CCCC2=O)cc1 (stereo not shown) [MRGG045272a] | > 45 µM
O=C(NC(CO)C(O)c1ccc(Cl)cc1)c1ccc2ccncc2c1 (stereo not shown) [MRGG045273a] | > 45 µM
CN(Cc1ccc(-c2ccc(Cl)cc2)o1)C(=O)CN1C(=O)c2cccnc2C1=O [MRGG045274a] | > 45 µM
COc1ccc(C(NC(=O)C2CC(C)=NO2)c2ccc(Cl)cc2)cc1 (stereo not shown) [MRGG045275a] | > 45 µM
CN1CCOC(C(NC(=O)c2cncc3cnccc23)c2ccc(Cl)cc2)C1 (stereo not shown) [MRGG045276a] | > 45 µM
CCN1CCN(c2ccc(C(=O)N(C)c3cccc(C)c3)cc2F)CC1 [MRGG045277a] | > 45 µM
Cc1nn2cc(C(=O)N(C)CCc3cccc(C#N)c3)nc2s1 [MRGG045278a] | > 45 µM
CC(NC(=O)CN(C)C1CCN(C2CC2)C1)c1ccc(Br)cc1 (stereo not shown) [MRGG045280a] | > 45 µM
O=C(CCN1C[C@@H]2C[C@H]1CN2C1CC1)NCc1ccccc1Cl [MRGG045281a] | > 45 µM
Cc1nn(C)cc1C1=NOC(C(=O)N[C@H](C)c2ccc(Br)cc2)C1 (stereo partly shown) [MRGG045282a] | > 45 µM
O=C(CSc1nnc(-c2ccc(Cl)cc2)o1)NCc1ccc(O)c(O)c1 [MRGG045283a] | > 45 µM
N#Cc1cccc(CN(C=O)C2CC3(CCCC3)Oc3ccccc32)c1 (stereo not shown) [MRGG045284a] | > 45 µM
CC1(CNC2CCN(C3CC3)C2)CCN(C(=O)OC(C)(C)C)C1 (stereo not shown) [MRGG045285a] | > 45 µM
CN(C)C(=O)CC1CCN(C(=O)c2cc3cc(O)c(O)cc3s2)CC1 [MRGG045286a] | > 45 µM
CNC(=O)c1cc(C)nc(N2CCC3(CC2)CN(C)c2ccccc23)n1 [MRGG045287a] | > 45 µM
